In article PMC9817970 (Cancers, 2022):

What was measured:
Assay in all cases: Kinase panel profiling
Assay type in all cases: biochemical
Details in all cases: 10 μM ATP
CAMK2g = biological target: T1, CAMK2g (Homo sapiens, UniProt Q13555)
T1 construct: purchased Reaction Biology Corp
Method: (§1) Kinase panel profiling was conducted by Reaction Biology Corp. (San Diego, CA, USA). A single dose (1.0 μM) of 6r was tested against 371 recombinant human kinases in the presence of 10 μM ATP.

STK22D/TSSK1 = biological target: T2, STK22D/TSSK1 (Homo sapiens, UniProt Q9BXA7)
T2 construct: purchased Reaction Biology Corp
Method: as §1

DYRK1/DYRK1A = biological target: T3, DYRK1/DYRK1A (Homo sapiens, UniProt Q13627)
T3 construct: purchased Reaction Biology Corp
Method: as §1

CDC7/DBF4 = biological target: T4, CDC7/DBF4 (Homo sapiens, UniProt O00311)
T4 construct: purchased Reaction Biology Corp
Method: as §1

YSK4/MAP3K19 = biological target: T5, YSK4/MAP3K19 (Homo sapiens, UniProt Q56UN5)
T5 construct: purchased Reaction Biology Corp
T5 sequence (Q56UN5 whole entry): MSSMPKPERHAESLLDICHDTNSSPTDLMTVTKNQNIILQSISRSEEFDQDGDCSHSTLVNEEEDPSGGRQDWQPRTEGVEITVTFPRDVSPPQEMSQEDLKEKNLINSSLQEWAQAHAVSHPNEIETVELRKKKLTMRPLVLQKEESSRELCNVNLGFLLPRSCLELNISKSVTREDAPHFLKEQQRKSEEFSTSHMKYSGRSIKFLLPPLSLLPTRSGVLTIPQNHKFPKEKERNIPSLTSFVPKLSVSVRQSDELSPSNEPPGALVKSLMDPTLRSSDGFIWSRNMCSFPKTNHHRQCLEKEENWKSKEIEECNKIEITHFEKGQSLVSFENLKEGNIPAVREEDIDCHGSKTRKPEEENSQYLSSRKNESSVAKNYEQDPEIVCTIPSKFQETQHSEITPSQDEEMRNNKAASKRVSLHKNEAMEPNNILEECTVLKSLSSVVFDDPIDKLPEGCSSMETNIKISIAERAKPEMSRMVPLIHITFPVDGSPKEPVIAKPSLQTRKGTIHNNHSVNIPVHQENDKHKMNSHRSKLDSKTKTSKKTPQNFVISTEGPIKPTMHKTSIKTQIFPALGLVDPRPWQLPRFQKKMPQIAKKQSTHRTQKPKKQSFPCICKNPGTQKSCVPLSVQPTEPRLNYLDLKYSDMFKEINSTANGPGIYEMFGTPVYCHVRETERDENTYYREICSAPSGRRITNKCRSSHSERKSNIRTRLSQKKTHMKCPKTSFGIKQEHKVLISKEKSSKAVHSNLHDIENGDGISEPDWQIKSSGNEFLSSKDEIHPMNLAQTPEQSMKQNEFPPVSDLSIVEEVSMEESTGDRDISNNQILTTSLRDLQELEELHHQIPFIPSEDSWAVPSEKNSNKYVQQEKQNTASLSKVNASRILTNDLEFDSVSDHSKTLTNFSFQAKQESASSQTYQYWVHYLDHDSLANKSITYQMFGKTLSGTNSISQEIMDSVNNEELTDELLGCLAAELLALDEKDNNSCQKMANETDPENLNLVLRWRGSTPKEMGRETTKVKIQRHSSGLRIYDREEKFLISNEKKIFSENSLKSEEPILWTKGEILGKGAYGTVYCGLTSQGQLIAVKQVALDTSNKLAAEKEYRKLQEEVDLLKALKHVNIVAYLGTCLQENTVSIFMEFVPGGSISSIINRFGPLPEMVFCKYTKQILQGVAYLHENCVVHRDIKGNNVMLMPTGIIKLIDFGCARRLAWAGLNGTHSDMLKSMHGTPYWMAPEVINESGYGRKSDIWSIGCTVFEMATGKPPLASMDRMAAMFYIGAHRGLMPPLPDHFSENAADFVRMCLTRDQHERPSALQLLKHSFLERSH
Method: as §1

TYK1/LTK = biological target: T6, TYK1/LTK (Homo sapiens, UniProt P29376)
T6 construct: purchased Reaction Biology Corp
Method: as §1

JAK2 = biological target: T7, JAK2 (Homo sapiens, UniProt O60674)
T7 construct: purchased Reaction Biology Corp
Method: as §1

PAK3 = biological target: T8, PAK3 (Homo sapiens, UniProt O75914)
T8 construct: purchased Reaction Biology Corp
Method: as §1

SIK3 = biological target: T9, SIK3 (Homo sapiens, UniProt Q9Y2K2)
T9 construct: purchased Reaction Biology Corp
Method: as §1

IGF1R = biological target: T10, IGF1R (Homo sapiens, UniProt P08069)
T10 construct: purchased Reaction Biology Corp
Method: as §1

STK33 = biological target: T11, STK33 (Homo sapiens, UniProt Q9BYT3)
T11 construct: purchased Reaction Biology Corp
Method: as §1

ALK = biological target: T12, ALK (Homo sapiens, UniProt Q9UM73)
T12 construct: purchased Reaction Biology Corp
Method: as §1

EPHB3 = biological target: T13, EPHB3 (Homo sapiens, UniProt P54753)
T13 construct: purchased Reaction Biology Corp
Method: as §1

LIMK2 = biological target: T14, LIMK2 (Homo sapiens, UniProt P53671)
T14 construct: purchased Reaction Biology Corp
Method: as §1

PHKg1 = biological target: T15, PHKg1 (Homo sapiens, UniProt Q16816)
T15 construct: purchased Reaction Biology Corp
Method: as §1

BRAF = biological target: T16, BRAF (Homo sapiens, UniProt P15056)
T16 construct: purchased Reaction Biology Corp
T16 sequence (P15056 whole entry): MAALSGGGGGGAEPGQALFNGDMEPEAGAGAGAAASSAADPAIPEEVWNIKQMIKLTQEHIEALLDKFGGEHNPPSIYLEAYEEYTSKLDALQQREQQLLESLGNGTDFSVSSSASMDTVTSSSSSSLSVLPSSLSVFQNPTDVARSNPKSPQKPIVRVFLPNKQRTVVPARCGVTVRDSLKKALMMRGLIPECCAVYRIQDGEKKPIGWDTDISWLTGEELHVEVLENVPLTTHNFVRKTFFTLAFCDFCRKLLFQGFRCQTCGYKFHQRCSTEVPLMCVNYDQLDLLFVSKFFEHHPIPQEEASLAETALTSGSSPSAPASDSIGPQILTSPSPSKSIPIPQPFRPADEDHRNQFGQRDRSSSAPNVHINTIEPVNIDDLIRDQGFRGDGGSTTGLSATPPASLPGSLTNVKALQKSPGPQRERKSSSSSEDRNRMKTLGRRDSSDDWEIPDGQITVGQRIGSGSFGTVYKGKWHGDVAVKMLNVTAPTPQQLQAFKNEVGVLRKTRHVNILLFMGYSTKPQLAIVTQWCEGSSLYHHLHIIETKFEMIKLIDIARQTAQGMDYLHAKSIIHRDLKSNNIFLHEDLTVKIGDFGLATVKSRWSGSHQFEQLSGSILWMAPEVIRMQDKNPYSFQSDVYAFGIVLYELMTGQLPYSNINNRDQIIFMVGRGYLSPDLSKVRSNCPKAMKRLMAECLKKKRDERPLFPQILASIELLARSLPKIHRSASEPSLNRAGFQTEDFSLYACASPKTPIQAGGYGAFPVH
Method: as §1

TLK1 = biological target: T17, TLK1 (Homo sapiens, UniProt Q9UKI8)
T17 construct: purchased Reaction Biology Corp
Method: as §1

CDK2/cyclin O = biological target: T18, CDK2/cyclin O (Homo sapiens, UniProt P24941)
T18 construct: purchased Reaction Biology Corp
Method: as §1

DYRK1B = biological target: T19, DYRK1B (Homo sapiens, UniProt Q9Y463)
T19 construct: purchased Reaction Biology Corp
Method: as §1

CDK17/cyclin Y (PCTK2) = biological target: T20, CDK17/cyclin Y (PCTK2) (Homo sapiens, UniProt Q00537)
T20 construct: purchased Reaction Biology Corp
Method: as §1

IRAK1 = biological target: T21, IRAK1 (Homo sapiens, UniProt P51617)
T21 construct: purchased Reaction Biology Corp
Method: as §1

LYN = biological target: T22, LYN (Homo sapiens, UniProt P07948)
T22 construct: purchased Reaction Biology Corp
Method: as §1

CDK6/cyclin D1 = biological target: T23, CDK6/cyclin D1 (Homo sapiens, UniProt Q00534)
T23 construct: purchased Reaction Biology Corp
Method: as §1

HIPK2 = biological target: T24, HIPK2 (Homo sapiens, UniProt Q9H2X6)
T24 construct: purchased Reaction Biology Corp
Method: as §1

P38g = biological target: T25, P38g (Homo sapiens, UniProt P53778)
T25 construct: purchased Reaction Biology Corp
Method: as §1

TEC = biological target: T26, TEC (Homo sapiens, UniProt P42680)
T26 construct: purchased Reaction Biology Corp
Method: as §1

CK2a2 = biological target: T27, CK2a2 (Homo sapiens, UniProt P19784)
T27 construct: purchased Reaction Biology Corp
Method: as §1

DAPK2 = biological target: T28, DAPK2 (Homo sapiens, UniProt Q9UIK4)
T28 construct: purchased Reaction Biology Corp
Method: as §1

GLK/MAP4K3 = biological target: T29, GLK/MAP4K3 (Homo sapiens, UniProt Q8IVH8)
T29 construct: purchased Reaction Biology Corp
Method: as §1

STK16 = biological target: T30, STK16 (Homo sapiens, UniProt O75716)
T30 construct: purchased Reaction Biology Corp
T30 sequence (O75716 whole entry): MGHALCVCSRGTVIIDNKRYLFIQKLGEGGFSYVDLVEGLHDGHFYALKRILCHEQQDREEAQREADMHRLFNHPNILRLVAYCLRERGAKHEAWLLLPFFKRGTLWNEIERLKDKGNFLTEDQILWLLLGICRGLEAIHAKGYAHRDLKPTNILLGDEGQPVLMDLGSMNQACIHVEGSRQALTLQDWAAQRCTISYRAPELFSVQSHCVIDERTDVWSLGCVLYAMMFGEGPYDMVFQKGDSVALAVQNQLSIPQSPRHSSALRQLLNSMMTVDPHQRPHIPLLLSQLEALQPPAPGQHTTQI
Method: as §1

PKCepsilon = biological target: T31, PKCepsilon (Homo sapiens, UniProt Q02156)
T31 construct: purchased Reaction Biology Corp
T31 sequence (Q02156 whole entry): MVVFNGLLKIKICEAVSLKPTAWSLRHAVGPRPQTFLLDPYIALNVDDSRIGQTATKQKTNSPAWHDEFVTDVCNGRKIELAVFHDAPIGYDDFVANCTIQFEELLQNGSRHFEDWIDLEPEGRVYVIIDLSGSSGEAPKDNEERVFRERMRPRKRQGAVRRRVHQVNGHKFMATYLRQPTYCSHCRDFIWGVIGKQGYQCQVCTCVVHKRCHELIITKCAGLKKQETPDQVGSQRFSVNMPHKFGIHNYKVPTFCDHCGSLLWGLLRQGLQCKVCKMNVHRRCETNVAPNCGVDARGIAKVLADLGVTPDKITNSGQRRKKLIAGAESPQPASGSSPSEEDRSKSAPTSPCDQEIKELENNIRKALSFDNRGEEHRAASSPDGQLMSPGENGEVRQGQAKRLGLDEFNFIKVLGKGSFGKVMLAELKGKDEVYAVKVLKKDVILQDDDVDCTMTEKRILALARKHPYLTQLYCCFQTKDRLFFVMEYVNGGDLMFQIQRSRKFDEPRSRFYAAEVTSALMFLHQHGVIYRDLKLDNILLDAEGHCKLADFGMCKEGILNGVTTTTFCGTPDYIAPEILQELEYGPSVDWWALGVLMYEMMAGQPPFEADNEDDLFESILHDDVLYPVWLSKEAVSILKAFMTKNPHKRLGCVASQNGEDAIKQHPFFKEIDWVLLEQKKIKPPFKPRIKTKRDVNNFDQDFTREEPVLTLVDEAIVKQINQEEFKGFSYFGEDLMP
Method: as §1

MNK2 = biological target: T32, MNK2 (Homo sapiens, UniProt Q9HBH9)
T32 construct: purchased Reaction Biology Corp
Method: as §1

HCK = biological target: T33, HCK (Homo sapiens, UniProt P08631)
T33 construct: purchased Reaction Biology Corp
T33 sequence (P08631 whole entry): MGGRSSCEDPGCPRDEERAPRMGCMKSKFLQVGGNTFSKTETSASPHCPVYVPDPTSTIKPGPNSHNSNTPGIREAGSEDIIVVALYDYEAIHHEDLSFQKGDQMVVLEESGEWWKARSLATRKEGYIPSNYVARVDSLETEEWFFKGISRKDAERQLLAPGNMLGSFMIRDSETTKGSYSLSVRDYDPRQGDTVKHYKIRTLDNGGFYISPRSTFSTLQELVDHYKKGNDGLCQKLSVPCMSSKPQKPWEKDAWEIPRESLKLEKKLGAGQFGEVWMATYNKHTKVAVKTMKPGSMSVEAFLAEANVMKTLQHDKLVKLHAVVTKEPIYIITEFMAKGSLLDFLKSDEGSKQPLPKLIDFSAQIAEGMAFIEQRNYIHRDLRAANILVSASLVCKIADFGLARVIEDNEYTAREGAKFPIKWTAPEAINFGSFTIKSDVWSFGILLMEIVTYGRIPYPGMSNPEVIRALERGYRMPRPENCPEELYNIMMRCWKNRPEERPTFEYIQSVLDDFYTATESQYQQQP
Method: as §1

PLK1 = biological target: T34, PLK1 (Homo sapiens, UniProt P53350)
T34 construct: purchased Reaction Biology Corp
Method: as §1

TSSK2 = biological target: T35, TSSK2 (Homo sapiens, UniProt Q96PF2)
T35 construct: purchased Reaction Biology Corp
Method: as §1

AURORA B = biological target: T36, AURORA B (Homo sapiens, UniProt Q96GD4)
T36 construct: purchased Reaction Biology Corp
T36 sequence (Q96GD4 whole entry): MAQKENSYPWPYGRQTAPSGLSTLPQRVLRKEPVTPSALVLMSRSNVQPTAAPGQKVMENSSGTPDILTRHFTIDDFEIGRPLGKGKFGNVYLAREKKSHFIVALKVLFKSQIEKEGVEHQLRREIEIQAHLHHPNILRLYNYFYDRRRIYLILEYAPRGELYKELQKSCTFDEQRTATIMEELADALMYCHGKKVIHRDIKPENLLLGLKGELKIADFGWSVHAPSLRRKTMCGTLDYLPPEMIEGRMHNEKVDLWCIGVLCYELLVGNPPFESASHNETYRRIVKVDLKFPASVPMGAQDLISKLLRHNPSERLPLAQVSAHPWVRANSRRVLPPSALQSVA
Method: as §1

PDGFRa = biological target: T37, PDGFRa (Homo sapiens, UniProt P16234)
T37 construct: purchased Reaction Biology Corp
T37 sequence (P16234 24-1089): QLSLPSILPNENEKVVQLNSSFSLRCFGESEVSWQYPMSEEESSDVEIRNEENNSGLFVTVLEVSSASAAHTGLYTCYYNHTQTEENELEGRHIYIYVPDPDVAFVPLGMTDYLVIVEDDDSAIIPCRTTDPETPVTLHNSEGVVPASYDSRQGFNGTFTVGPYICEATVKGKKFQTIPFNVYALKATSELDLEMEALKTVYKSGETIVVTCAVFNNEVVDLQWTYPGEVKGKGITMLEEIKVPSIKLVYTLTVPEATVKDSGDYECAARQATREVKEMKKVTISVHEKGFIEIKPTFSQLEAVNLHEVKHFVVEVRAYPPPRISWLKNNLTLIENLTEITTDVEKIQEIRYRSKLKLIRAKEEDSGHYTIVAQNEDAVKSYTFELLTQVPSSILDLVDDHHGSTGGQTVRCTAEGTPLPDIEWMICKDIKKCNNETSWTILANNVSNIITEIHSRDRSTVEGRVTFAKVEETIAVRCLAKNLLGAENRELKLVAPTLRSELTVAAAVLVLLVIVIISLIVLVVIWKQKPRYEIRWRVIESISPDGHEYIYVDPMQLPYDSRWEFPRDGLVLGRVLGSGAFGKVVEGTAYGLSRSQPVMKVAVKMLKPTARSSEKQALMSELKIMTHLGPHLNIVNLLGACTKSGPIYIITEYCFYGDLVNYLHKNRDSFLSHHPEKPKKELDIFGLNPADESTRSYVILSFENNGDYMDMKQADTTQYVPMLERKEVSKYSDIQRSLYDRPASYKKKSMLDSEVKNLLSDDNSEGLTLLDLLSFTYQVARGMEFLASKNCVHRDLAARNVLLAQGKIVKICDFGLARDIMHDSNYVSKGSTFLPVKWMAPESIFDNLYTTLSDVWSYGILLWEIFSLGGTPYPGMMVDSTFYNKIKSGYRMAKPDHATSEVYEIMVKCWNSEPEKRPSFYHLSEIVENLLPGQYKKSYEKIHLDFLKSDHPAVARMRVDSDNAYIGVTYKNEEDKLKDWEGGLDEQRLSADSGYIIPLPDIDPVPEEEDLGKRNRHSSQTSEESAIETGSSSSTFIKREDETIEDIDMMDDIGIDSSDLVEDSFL
Method: as §1

ULK2 = biological target: T38, ULK2 (Homo sapiens, UniProt Q8IYT8)
T38 construct: purchased Reaction Biology Corp
Method: as §1

BLK = biological target: T39, BLK (Homo sapiens, UniProt P51451)
T39 construct: purchased Reaction Biology Corp
Method: as §1

GCK/MAP4K2 = biological target: T40, GCK/MAP4K2 (Homo sapiens, UniProt Q12851)
T40 construct: purchased Reaction Biology Corp
Method: as §1

PKCd = biological target: T41, PKCd (Homo sapiens, UniProt Q05655)
T41 construct: purchased Reaction Biology Corp
Method: as §1

NEK3 = biological target: T42, NEK3 (Homo sapiens, UniProt P51956)
T42 construct: purchased Reaction Biology Corp
Method: as §1

**Q.** How did the inhibition at 1 µM (CAMK2g) turn out when Cc1ccc(NC(=O)c2ccc(CN3CCN(C)CC3)c(C(F)(F)F)c2)cc1-c1cnc2sc(N)nc2c1 [6r] was run?
**A.** 0%

**Q.** And the inhibition at 1 µM (STK22D/TSSK1)?
**A.** 14.9%

**Q.** And the inhibition at 1 µM (DYRK1/DYRK1A)?
**A.** 17.4%

**Q.** What about the inhibition at 1 µM (CDC7/DBF4) of the same compound?
**A.** 0.8%

**Q.** What about the inhibition at 1 µM (YSK4/MAP3K19) of the same compound?
**A.** 0%

**Q.** And the inhibition at 1 µM (TYK1/LTK)?
**A.** 1%

**Q.** And the inhibition at 1 µM (JAK2)?
**A.** 2%

**Q.** What about the inhibition at 1 µM (PAK3) of the same compound?
**A.** 8.3%

**Q.** What about the inhibition at 1 µM (SIK3) of the same compound?
**A.** 0%

**Q.** And the inhibition at 1 µM (IGF1R)?
**A.** 0%

**Q.** And the inhibition at 1 µM (STK33)?
**A.** 9.5%

**Q.** What about the inhibition at 1 µM (ALK) of the same compound?
**A.** 0%

**Q.** What about the inhibition at 1 µM (EPHB3) of the same compound?
**A.** 42.5%

**Q.** What about the inhibition at 1 µM (LIMK2) of the same compound?
**A.** 39.9%

**Q.** And the inhibition at 1 µM (PHKg1)?
**A.** 19.6%

**Q.** And the inhibition at 1 µM (BRAF)?
**A.** 97.4%

**Q.** And the inhibition at 1 µM (TLK1)?
**A.** 0%

**Q.** And the inhibition at 1 µM (CDK2/cyclin O)?
**A.** 12.3%

**Q.** What about the inhibition at 1 µM (DYRK1B) of the same compound?
**A.** 26.2%

**Q.** And the inhibition at 1 µM (CDK17/cyclin Y (PCTK2))?
**A.** 3.9%

**Q.** And the inhibition at 1 µM (IRAK1)?
**A.** 0%

**Q.** What about the inhibition at 1 µM (LYN) of the same compound?
**A.** 97.5%

**Q.** What about the inhibition at 1 µM (CDK6/cyclin D1) of the same compound?
**A.** 9.1%

**Q.** And the inhibition at 1 µM (HIPK2)?
**A.** 0.5%

**Q.** What about the inhibition at 1 µM (P38g) of the same compound?
**A.** 0%

**Q.** What about the inhibition at 1 µM (TEC) of the same compound?
**A.** 1.6%

**Q.** And the inhibition at 1 µM (CK2a2)?
**A.** 1%

**Q.** What about the inhibition at 1 µM (DAPK2) of the same compound?
**A.** 0.3%

**Q.** And the inhibition at 1 µM (GLK/MAP4K3)?
**A.** 15%

**Q.** And the inhibition at 1 µM (STK16)?
**A.** 3.6%

**Q.** And the inhibition at 1 µM (PKCepsilon)?
**A.** 0%

**Q.** And the inhibition at 1 µM (MNK2)?
**A.** 0%

**Q.** What about the inhibition at 1 µM (HCK) of the same compound?
**A.** 83.1%

**Q.** What about the inhibition at 1 µM (PLK1) of the same compound?
**A.** 0%

**Q.** And the inhibition at 1 µM (TSSK2)?
**A.** 0%

**Q.** What about the inhibition at 1 µM (AURORA B) of the same compound?
**A.** 0%

**Q.** And the inhibition at 1 µM (PDGFRa)?
**A.** 96.7%

**Q.** What about the inhibition at 1 µM (ULK2) of the same compound?
**A.** 0%

**Q.** And the inhibition at 1 µM (BLK)?
**A.** 84.8%

**Q.** And the inhibition at 1 µM (GCK/MAP4K2)?
**A.** 21.8%

**Q.** And the inhibition at 1 µM (PKCd)?
**A.** 10.1%

**Q.** And the inhibition at 1 µM (NEK3)?
**A.** 0%
